Source: patent US7371741B2, “Estradiol derivatives and pharmaceutical compositions using same” (EntreMed, Inc., priority 2003, dated 2008)

What was measured:
Type in all cases: cell-based
[1] = test system: MDA-MB-231: breast cancer; assay: In vitro anti-proliferative activity, BrdU incorporation, MDA-MB-231; conditions: MDA-MB-231 cells, 50% inhibition of proliferation, BrdU incorporation into DNA
Procedure: (§1) Determination of in vitro anti-proliferative activity of substituted estradiol analogs: In vitro anti-proliferative or anti-mitogenic activity was determined using a commercially available cell-based assay in 96-well tissue culture plates with assessment of proliferation by evaluating DNA synthesis through incorporation into DNA of immuno-reactive (BrdU) nucleotides. The cell types used are commercially available (MDA-MB-231: breast cancer; U87-MG: glioblastoma; PC3: prostate cancer; HUVEC: non-transformed early passage human umbilical vein endothelial cells). These assays, and the many assay variations possible to determine in vitro anti-proliferative or anti-mitogenic activity, are well known to those skilled in the art. The concentration which causes 50% inhibition of proliferation (IC50) was estimated from a dose-response curve generally carried out with a range of concentrations from ≧100 microg/mL to ≦0.01 microg/mL.

[2] = test system: HUVEC: non-transformed early passage human umbilical vein endothelial cells; assay: In vitro anti-proliferative activity, BrdU incorporation, HUVEC; conditions: 50% inhibition of proliferation, BrdU incorporation into DNA
Procedure: as §1

U87-MG: glioblastoma = assay: In vitro anti-proliferative activity, BrdU incorporation, U87-MG; conditions: U87-MG cells, 50% inhibition of proliferation, BrdU incorporation into DNA
Procedure: as §1

PC3: prostate cancer = assay: In vitro anti-proliferative activity, BrdU incorporation, PC3; conditions: PC3 cells, 50% inhibition of proliferation, BrdU incorporation into DNA
Procedure: as §1

| IC50 [1] [nM] | IC50 (U87-MG: glioblastoma) [nM] | IC50 (PC3: prostate cancer) [nM] | Structure (SMILES) | IC50 ([1]; Homo sapiens) [nM] | IC50 ([2]; Homo sapiens) [nM] | IC50 (U87-MG: glioblastoma; Homo sapiens, U-87 MG) [nM] | IC50 (PC3: prostate cancer; Homo sapiens, PC-3) [nM] | IC50 [2] [nM] |
| --- | --- | --- | --- | --- | --- | --- | --- | --- |
|  |  |  | CCOc1cc2c(cc1O)CC[C@@H]1[C@@H]2CC[C@]2(C)C(O)CC[C@@H]12 (some centres unmarked) [Compound 2, 2-Ethoxyestra-1,3,5(10)-trien-3,17-diol] | 650 ± 230 | 140 ± 70 |  |  |  |
|  |  |  | CC#Cc1cc2c(cc1O)CCC1C2CC[C@@]2(C)C1CC[C@@H]2O (some centres unmarked) [Compound 3] | 3990 ± 1120 | 520 ± 140 | 2680 ± 220 | 2220 ± 130 |  |
|  |  |  | COc1cc2c(cc1O)CC[C@@H]1[C@@H]2CC[C@]2(C)C(=O)CC[C@@H]12 [Compound 4, 2-methoxyestra-1,3,5(10)-trien-3-ol-17-one, reference compound] | 11700 | 12600 | 10500 | 13700 |  |
|  |  |  | COc1cc2c(cc1O)CC[C@@H]1[C@@H]2CC[C@]2(C)CCC[C@@H]12 [Compound 7, 2-methoxyestra-1,3,5(10)-triene-3-ol] | 2200 ± 520 | 1320 ± 560 | 7350 ± 430 | 8490 ± 2490 |  |
| 580 ± 310 |  |  | C=C1CC[C@H]2[C@@H]3CCc4cc(O)c(OC)cc4[C@H]3CC[C@]12C [Compound 10, 2-methoxy-17(20)-methyleneestra-1,3,5(10)-triene-3-ol] |  |  |  |  | 260 ± 230 |
| 2630 ± 200 | 2370 ± 340 | 1150 ± 400 | CC=C1CCC2C3CCc4cc(O)c(OC)cc4C3CCC12C (centres unmarked) [Compound 13, 2-Methoxy-19-norpregna-1,3,5(10)17(20)-tetraene-3-ol] |  |  |  |  | 370 ± 80 |
|  |  |  | COc1cc2c(cc1O)CC[C@@H]1[C@@H]2CC[C@]2(C)[C@@H](C)CC[C@@H]12 [Compound 16, 2-methoxy-17β-methylestra-1,3,5(10)-triene-3-ol] | 3330 ± 230 | 2400 ± 450 | 9390 ± 430 | 6460 ± 2310 |  |
|  |  |  | C=Cc1cc2c(cc1OC)[C@H]1CC[C@]3(C)C(=O)CC[C@H]3[C@@H]1CC2 [Compound 25, 2-methoxy-3-(vinyl)estra-1,3,5(10)-triene-17-one] | 2570 ± 290 | 580 ± 10 | 2200 ± 60 | 1430 ± 400 |  |
|  |  |  | C=Cc1cc2c(cc1OC)[C@H]1CC[C@]3(C)[C@@H](O)CC[C@H]3[C@@H]1CC2 [Compound 25a, 2-methoxy-3-(vinyl)estra-1,3,5(10)-triene-17β-ol] | 8930 ± 610 | 1960 ± 50 | 7810 ± 1300 | 6340 ± 80 |  |
| > 100000 | > 100000 | > 100000 | COc1cc2c(cc1C(=O)O)CC[C@@H]1[C@@H]2CC[C@]2(C)C(=O)CC[C@@H]12 [Compound 28, 2-methoxy-3-(carboxylic acid)estra-1,3,5(10)-triene-17-one] |  |  |  |  | > 100000 |
| 700 ± 120 | 1070 ± 150 | 700 ± 30 | COc1cc2c(cc1C(N)=O)CC[C@@H]1[C@@H]2CC[C@]2(C)C(=O)CC[C@@H]12 [Compound 31, 2-methoxy-3-carboxamideestra-1,3,5(10)-triene-17-one] |  |  |  |  | 790 ± 200 |
|  |  |  | COc1cc2c(cc1N)CC[C@@H]1[C@@H]2CC[C@]2(C)C(=O)CC[C@@H]12 [Compound 34, 3-amino-2-methoxyestra-1,3,5(10)-trien-17-one] | 46900 ± 8150 | 23400 ± 4140 | 81500 ± 20400 | > 100000 |  |
|  |  |  | CCOc1cc2c(cc1N)CC[C@@H]1[C@@H]2CC[C@]2(C)C(=O)CC[C@@H]12 [Compound 35, 3-Amino-2-ethoxyestra-1,3,5(10)-trien-17-one] | 10600 ± 2980 | 16500 ± 2020 | 26000 ± 1400 | 9250 ± 1580 |  |
|  |  |  | COc1cc2c(cc1F)CC[C@@H]1[C@@H]2CC[C@]2(C)C(=O)CC[C@@H]12 [Compound 40, 3-fluoro-2-methoxyestra-1,3,5(10)-trien-17-one] | 2940 ± 800 | 2100 ± 230 | 26000 ± 3380 | 9260 ± 730 |  |
| 380 ± 150 | 720 ± 40 | 380 ± 210 | COc1cc2c(cc1OS(N)(=O)=O)CC[C@@H]1[C@@H]2CC[C@]2(C)CCC[C@@H]12 [Compound 46, 3-sulfamate-2-methoxyestra-1,3,5(10)-triene] |  |  |  |  | 210 ± 150 |
|  |  |  | C=Cc1cc2c(cc1OC)[C@H]1CC[C@]3(C)CCC[C@H]3[C@@H]1CC2 [Compound 52, 3-Vinyl-2-methoxyestra-1,3,5(10)-triene] | 1860 ± 220 | 580 ± 40 | 3140 ± 520 | 2120 ± 640 |  |
| 5230 ± 1950 | 4520 ± 1300 | 2580 ± 360 | COc1cc2c(cc1C(N)=O)CC[C@@H]1[C@@H]2CC[C@]2(C)CCC[C@@H]12 [Compound 58, (2-Methoxyestra-1,3,5(10)-trien-3-yl)-3-carboxamide] |  |  |  |  | 1420 ± 410 |
|  |  |  | COc1cc2c(cc1N)CC[C@@H]1[C@@H]2CC[C@]2(C)CCC[C@@H]12 [Compound 61, 3-amino-2-methoxyestra-1,3,5(10)-triene] | 7620 ± 430 | 6430 ± 1320 | 10200 ± 3780 | 8630 ± 180 |  |
| 560 ± 20 | 700 ± 60 | 910 ± 320 | C=C1CC[C@H]2[C@@H]3CCc4cc(OS(N)(=O)=O)c(OC)cc4[C@H]3CC[C@]12C [Compound 70, 17-methylene-3-sulfamate-2-methoxyestra-1,3,5(10)-triene] |  |  |  |  | 580 ± 30 |
| > 100000 | > 100000 | > 100000 | C=C1CC[C@H]2[C@@H]3CCc4cc(OS(=O)(=O)C(F)(F)F)c(OC)cc4[C@H]3CC[C@]12C [Compound 73, 3-triflic-17-methylene-2-methoxyestra-1,3,5(10)-triene] |  |  |  |  | > 100000 |
|  |  |  | C=C1CC[C@H]2[C@@H]3CCc4cc(C(N)=O)c(OC)cc4[C@H]3CC[C@]12C [Compound 82, 2-Methoxy-17-methyleneestra-1,3,5(10)-triene-3-carboxamide] | 190 ± 80 | 120 ± 60 | 250 ± 20 | 250 ± 10 |  |
|  |  |  | C=C1CC[C@H]2[C@@H]3CCc4cc(N)c(OC)cc4[C@H]3CC[C@]12C [Compound 85, 3-amino-17-methylene-2-methoxyestra-1,3,5(10)-triene] | 2110 ± 570 | 1000 ± 190 | 5510 ± 460 | 2400 ± 390 |  |
|  |  |  | C=C1CC[C@H]2[C@@H]3CCc4cc(N)c(OCC)cc4[C@H]3CC[C@]12C [Compound 86, 3-amino-17-methylene-2-ethoxyestra-1,3,5(10)-triene] | 2130 ± 120 | 2310 ± 50 | 7290 ± 2260 | 2750 ± 220 |  |
| 580 ± 20 | 640 ± 90 | 660 ± 50 | CC=C1CC[C@H]2[C@@H]3CCc4cc(OS(N)(=O)=O)c(OC)cc4[C@H]3CC[C@]12C [Compound 94, 3-sulfamate-17-ethylene-2-methoxyestra-1,3,5(10)-triene] |  |  |  |  | 590 |
| 1940 ± 270 | 2350 ± 410 | 920 ± 110 | CC=C1CC[C@H]2[C@@H]3CCc4cc(N)c(OC)cc4[C@H]3CC[C@]12C [Compound 109, 3-amino-17-ethylene-2-methoxyestra-1,3,5(10)-triene] |  |  |  |  | 720 ± 100 |

| Structure (SMILES) | IC50 [1] [nM] | IC50 (U87-MG: glioblastoma) [nM] | IC50 (PC3: prostate cancer) [nM] | IC50 ([1]; Homo sapiens) [nM] | IC50 ([2]; Homo sapiens) [nM] | IC50 (U87-MG: glioblastoma; Homo sapiens, U-87 MG) [nM] | IC50 (PC3: prostate cancer; Homo sapiens, PC-3) [nM] | IC50 [2] [nM] |
| --- | --- | --- | --- | --- | --- | --- | --- | --- |
| COc1cc2c(cc1OS(N)(=O)=O)CC[C@@H]1[C@@H]2CC[C@]2(C)C(=O)CC[C@@H]12 [Compound 19, 3-sulfamate-2-methoxyestra-1,3,5(10)-trien-17-one] | 600 ± 430 | 800 ± 230 | 510 ± 240 |  |  |  |  | 180 ± 40 |
| CCOc1cc2c(cc1OS(N)(=O)=O)CC[C@@H]1[C@@H]2CC[C@]2(C)C(=O)CC[C@@H]12 [Compound 20, 3-sulfamate-2-ethoxyestra-1,3,5(10)-trien-17-one] | 7520 ± 2040 | 19800 ± 2320 | 8930 ± 610 |  |  |  |  | 2590 ± 250 |
| COc1cc2c(cc1NC=O)CC[C@@H]1[C@@H]2CC[C@]2(C)C(O)CC[C@@H]12 (some centres unmarked) [Compound 43, 3-Formamide-2-methoxyestra-1,3-5(10)-trien-17-ol] | 780 ± 10 | 2700 ± 220 | 1340 ± 20 |  |  |  |  | 70 ± 20 |
| COc1cc2c(cc1NC=O)CC[C@@H]1[C@@H]2CC[C@]2(C)C(=O)CC[C@@H]12 [Compound 43A, 3-formamide-2-methoxyestra-1,3,5(10)-triene-17-one] | 1220 ± 600 | 940 ± 90 | 610 ± 270 |  |  |  |  | 530 ± 220 |
| CCOc1cc2c(cc1NC=O)CC[C@@H]1[C@@H]2CC[C@]2(C)C(=O)CC[C@@H]12 [Compound 44A, 3-Formamide-2-ethoxyestra-1,3-5(10)-trien-17-one] | 24900 ± 5630 | 21100 | 27700 ± 620 |  |  |  |  | 13200 ± 2200 |
| COc1cc2c(cc1NC=O)CC[C@@H]1[C@@H]2CC[C@]2(C)CCC[C@@H]12 [Compound 64, 3-formamide-2-methoxyestra-1,3,5(10)-triene] | 8290 ± 1640 | 23200 ± 2000 | 9240 ± 590 |  |  |  |  | 5800 ± 730 |
| C=C1CC[C@H]2[C@@H]3CCc4cc(NC=O)c(OC)cc4[C@H]3CC[C@]12C [Compound 88, 3-formamide-17-methylene-2-methoxyestra-1,3,5(10)-triene] | 300 ± 80 | 530 ± 240 | 240 ± 60 |  |  |  |  | 220 ± 30 |
| C=C1CC[C@H]2[C@@H]3CCc4cc(NC=O)c(OCC)cc4[C@H]3CC[C@]12C [Compound 89, 3-formamide-17-methylene-2-ethoxyestra-1,3,5(10)-triene] | 2410 ± 130 | 7730 | 1590 ± 190 |  |  |  |  | 2100 ± 20 |
